The values below are quoted from earlier work in US20220184102A1, “COMPOSITIONS AND METHODS FOR TREATING AGE-RELATED MACULAR DEGENERATION” (priority 2019, published 2022).

In one data set the test system is chronic periodontitis. The settings on record: 20 mg twice daily, two years.
The subject of data set [1] is early seropositive rheumatoid arthritis. The settings on record: 20 mg twice-daily (subantimicrobial dose) plus MTX.
Another data set deals with intestinal flora. The settings on record: 20 mg twice-daily for 9 months.
The test system of data set [2] is neovascular exudative AMD. The settings on record: oral minocycline combined with reduced-fluence PDT, intravitreal ranibizumab, intravitreal dexamethasone.

In the case of `C[C@H]1c2cccc(O)c2C(=O)C2=C(O)[C@]3(O)C(=O)C(C(N)=O)=C(O)[C@@H](N(C)C)[C@@H]3[C@@H](O)[C@@H]21` [doxycycline], in the data set on chronic periodontitis, the microbiological resistance entry is listed as “no sign of microbiological resistance” and the safety issues entry is “no significant safety issues”. In addition, in data set [1], the “number of adverse events versus placebo group” value is recorded as “equivalent”. In addition, the “antibacterial effect on intestinal flora” value with intestinal flora was “no antibacterial effect”. The tolerability entry in the data set with adult periodontitis (10 mg daily, 20 mg daily or 20 mg twice daily, 9-12 months) was “well-tolerated”. Also, in the data set with adult periodontitis (during the course of the study), the resistance to doxycycline entry is recorded as “no resistance developed”. Moreover, the “liver or kidney function tests versus control group” value in the data set with adult periodontitis (treatment groups) is “No clinically significant differences”.

For `CN(C)c1ccc(O)c2c1C[C@H]1C[C@H]3[C@H](N(C)C)C(O)=C(C(N)=O)C(=O)[C@@]3(O)C(O)=C1C2=O` [minocycline], the “levels in the brain relative to doxycycline at the same dose” value was ~3 fold. The safety concerns result in data set [2] was “No safety concerns were identified”.
